Assay results taken from patent publication US20180273503A1, “NOVEL ANGIOTENSIN CONVERTING ENZYME INHIBITOR” (RIKEN, priority 2015, published 2018).

Target: T1, angiotensin converting enzyme (ACE) (Homo sapiens, UniProt P12821)
T1 construct: purchased Dojindo Laboratories A502
Experiment: ACE inhibitory activity assay (ACE Kit-WST, A502, Dojindo Laboratories)
Type: biochemical
Conditions: for IC50: 3HB-GGG substrate, absorbance 450 nm, N.D. = ACE inhibitory activity was not detected in the test, read-out: IC50 concerning ACE activity
From the text: ACE inhibitory activity can be quantitatively evaluated with the use of, for example, a commercially available kit for ACE inhibitory activity assay. […] For example, ACE inhibitory activity of a target sample (e.g., a compound) can be evaluated with the use of a commercially available kit for ACE inhibitory activity assay (ACE Kit-WST, A502, Dojindo Laboratories) in the manner described below. In principle, such kit enzymatically detects 3-hydroxybutyric acid (3HB) cleaved from 3-hydroxybutyryl-glycyl-glycyl-glycine (3HB-GGG) by ACE activity. In accordance with the instructions of the kit, a sample solution containing a test compound at a given concentration is prepared in a reaction vessel, and a control solution is prepared with the addition of the same volume of water instead of the sample solution in another reaction vessel. An enzyme reaction solution is added to each reaction vessel, and the reaction is then allowed to proceed, respectively. As a blank sample, a solution prepared with the addition of the same volume of water instead of the enzyme solution is subjected to the same treatment. The absorbance (450 nm) of the chromogenic indicator used in the enzymatic method generated together with 3HB cleaved from 3HB-GGG by ACE activity is measured. On the basis of the values measured for the sample, the control sample, and the blank sample, ACE inhibitory activity of each sample is determined using the formula shown below. Alternatively, ACE inhibitory activity of the target sample can be evaluated in the manner described below. A substrate peptide that is a mimic of a C-terminal region of angiotensin I (e.g., hippuryl-histidyl-leucine (HHL)) and a sample are mixed with each other in an appropriate buffer solution. ACE is added to the resulting mixture and an enzymatic reaction is performed under appropriate conditions (e.g., 37° C. and pH 8.3) for a given period of time. After the enzymatic reaction is terminated, a product generated from the substrate peptide (e.g., hippuric acid in the case of HHL) is quantitatively measured via analytical means, such as absorbance measurement, immunoanalysis such as ELISA or RIA, or chromatography analysis such as HPLC or LC-MS. A sample-free control and an ACE-free blank are subjected to the same experiment. On the basis of the values measured for the sample, the control sample, and the blank sample, ACE inhibitory activity of each sample is determined using the formula shown below. […]
In principle, such kit enzymatically detects 3-hydroxybutyric acid (3HB) cleaved from 3-hydroxybutyryl-glycyl-glycyl-glycine (3HB-GGG) by ACE activity. […] The absorbance (450 nm) of the chromogenic indicator used in the enzymatic method generated together with 3HB cleaved from 3HB-GGG by ACE activity was measured.

T1 sequence (P12821 30-1306, species assumed): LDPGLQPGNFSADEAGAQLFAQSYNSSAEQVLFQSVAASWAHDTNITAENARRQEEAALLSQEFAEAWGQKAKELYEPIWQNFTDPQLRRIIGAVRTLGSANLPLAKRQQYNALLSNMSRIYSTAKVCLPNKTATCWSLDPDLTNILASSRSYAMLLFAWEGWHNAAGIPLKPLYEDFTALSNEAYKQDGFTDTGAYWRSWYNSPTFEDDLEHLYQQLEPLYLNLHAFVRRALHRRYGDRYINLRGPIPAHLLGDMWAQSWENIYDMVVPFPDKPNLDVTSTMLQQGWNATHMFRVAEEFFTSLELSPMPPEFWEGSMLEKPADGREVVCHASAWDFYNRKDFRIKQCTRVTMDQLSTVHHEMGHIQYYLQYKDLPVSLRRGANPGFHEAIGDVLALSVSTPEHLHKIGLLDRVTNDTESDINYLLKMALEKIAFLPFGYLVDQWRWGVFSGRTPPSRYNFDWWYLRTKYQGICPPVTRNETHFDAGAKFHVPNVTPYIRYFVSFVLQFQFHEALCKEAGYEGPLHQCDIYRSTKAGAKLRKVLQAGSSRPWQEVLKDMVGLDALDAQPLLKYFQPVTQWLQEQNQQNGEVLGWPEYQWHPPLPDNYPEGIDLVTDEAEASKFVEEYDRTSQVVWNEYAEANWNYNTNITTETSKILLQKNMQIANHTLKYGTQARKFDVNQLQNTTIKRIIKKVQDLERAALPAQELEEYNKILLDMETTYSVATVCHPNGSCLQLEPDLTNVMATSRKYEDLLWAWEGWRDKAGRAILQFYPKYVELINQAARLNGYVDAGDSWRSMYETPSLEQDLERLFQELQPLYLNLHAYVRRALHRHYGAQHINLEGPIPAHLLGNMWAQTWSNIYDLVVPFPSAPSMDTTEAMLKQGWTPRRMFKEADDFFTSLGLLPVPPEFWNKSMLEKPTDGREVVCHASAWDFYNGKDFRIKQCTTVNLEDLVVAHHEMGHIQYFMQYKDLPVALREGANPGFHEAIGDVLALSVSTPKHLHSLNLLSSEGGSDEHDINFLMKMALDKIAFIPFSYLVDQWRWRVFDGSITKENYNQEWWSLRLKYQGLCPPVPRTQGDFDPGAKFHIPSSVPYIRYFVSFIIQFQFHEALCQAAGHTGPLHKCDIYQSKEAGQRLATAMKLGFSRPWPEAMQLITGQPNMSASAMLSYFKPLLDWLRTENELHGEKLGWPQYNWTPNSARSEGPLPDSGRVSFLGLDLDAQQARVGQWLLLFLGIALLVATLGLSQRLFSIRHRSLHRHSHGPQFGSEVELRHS

| SMILES | IC50 [µM] | concentration at which ACE inhibitory activity is exerted (from the dose-response data) |
| --- | --- | --- |
| N=C(N)NCCC[C@H](NC(=O)C1CSSC1)C(=O)O [Asparaptine, asparaptine] | 113 | exceeding 1 μM |
| O=C(O)CCC(=O)N1CCC[C@H]1C(=O)O [N-Succinyl-L-proline, N-succinyl-L-proline] | 14.5 ± 5.3 |  |
| N[C@@H](CCN[C@@H](CCN1CC[C@H]1C(=O)O)C(=O)O)C(=O)O [Nicotianamine, nicotianamine] | 18.7 ± 0.54 |  |
